Results taken from PMC8151276, “An Integrated Approach toward NanoBRET Tracers for Analysis of GPCR Ligand Engagement” (Molecules, 2021).

Legend:
Assay type in all cases: binding
[1] = target: T1, NTSR1 (Homo sapiens, UniProt P30989); test: NanoBRET screen HiBiT-NTSR1 in HEK293
T1 construct: purchased Promega (in-house HiBiT-GPCR construct library, NanoBRET)
Experimental: (§1) Each tracer candidate was screened across the entire library of HiBiT-GPCR constructs using NanoBRET as the detection modality. As depicted in Figure 4A, the specificity of interactions was evaluated through decrease in BRET due to competitive displacement of a bound tracer by excess parental compound. Each tracer was analyzed for binding to each HiBiT-GPCR fusion in the absence and in the presence of competing parental compound. Briefly, HEK293 cells were transfected with HiBiT-GPCR constructs diluted into promoterless DNA to reduce expression and maximize translocation to the cell surface. Each tracer candidate was then screened at concentrations of 1 μM and 0.1 μM across cells expressing these fusions. Cells were treated for 1.5 h with tracer either alone or in the presence of 20 μM competing parental compound (i.e., control). BRET was measured upon addition of purified LgBiT and subsequent complementation with HiBiT genetically fused to a GPCR. The specificity of interactions was assessed through a decrease in BRET signal due to competitive displacement of the bound tracer. To further gauge the robustness of these interactions, the fold response over the control (i.e., BRETtracer/BRETcontrol) was calculated. We chose a 1.5-fold response, which translates to ≥7-fold signal over noise as the minimal threshold required to score an interaction as positive. […]. Below we highlight the screening results obtained for our exemplary fluorescent tracers based on Clozapine, Amitriptyline and AZD1283.
(§2) HiBiT-GPCR DNA constructs were diluted in 10 mM Tris pH 8 to a final concentration of 0.01 μg/μL, arrayed in 96-well plates and stored at −20 °C. For transfection, HEK293 cells were suspended in Opti-MEM (without phenol red) supplemented with 2% fetal bovine serum (Seradigm) and 100 units/mL penicillin–streptomycin (Gibco) at a final concentration of 220,000 cells/mL and dispensed into white 96-well plates at 90 μL/well. Subsequent transfections and screens were carried using an Agilent Bravo Automated Liquid Handling Platform. First, the 96-well HiBiT DNA arrays were diluted 25-fold in Opti-MEM (without serum or phenol red) to a final concentration of 0.0004 μg/μL and 20 μL of the diluted DNAs were transferred into new 96-well plates. Next, promoterless carrier DNA (1 μg/μL) was diluted 25-fold (0.04 μg/μL) and then dispensed into the diluted arrays at 20 μL/well. Following brief mixing, Viafect transfection reagent (Promega) diluted 16-fold into Opti-MEM was dispensed into the plates at 40 μL/well. After mixing by pipetting, plates were incubated for 10 min on the pipetting station deck. The DNA-transfection reagent complexes were then added to plates containing cells. To facilitate the screen, 10 μL of DNA-transfection reagent complexes were added in duplicates to the top 4 and bottom 4 rows, resulting in two identical 48-well arrays per plate. Plates with transfected cells were incubated for 18–20 h at 37 °C/5% CO2. A screen of each tracer across the entire library using two different concentrations requires duplicate plates of transfected cells. Depending on the number of tracers being screened, transfections can be scaled up using the same ratios. The next day, for each tracer, four 20× screening solutions in tracer dilution buffer (Promega) were prepared: two duplicates at final concentration of 20 μM and two duplicates at a final concentration of 2 μM. A competing unmodified compound was added to one of each duplicate at a final concentration of 400 μM. The four resulting solutions were diluted 4-fold in Opti-MEM without serum or phenol red to generate 5× solutions (5 µM and 0.5 µM tracer +/− 100 μM competing compound). To screen the library, a BioTek MultiFlo FX liquid dispenser was used to dispense 22.5 µL of tracer solution to the top 4 rows and 22.5 µL tracer + competing compound solution to the 4 bottom rows. Plates were briefly mixed on an orbital shaker and incubated for 1.5 h at room temperature. […]

[2] = target: T2, TACR3 (Homo sapiens, UniProt P29371); test: NanoBRET screen HiBiT-TACR3 in HEK293
T2 construct: purchased Promega (in-house HiBiT-GPCR construct library, NanoBRET)
T2 sequence (P29371 1-465): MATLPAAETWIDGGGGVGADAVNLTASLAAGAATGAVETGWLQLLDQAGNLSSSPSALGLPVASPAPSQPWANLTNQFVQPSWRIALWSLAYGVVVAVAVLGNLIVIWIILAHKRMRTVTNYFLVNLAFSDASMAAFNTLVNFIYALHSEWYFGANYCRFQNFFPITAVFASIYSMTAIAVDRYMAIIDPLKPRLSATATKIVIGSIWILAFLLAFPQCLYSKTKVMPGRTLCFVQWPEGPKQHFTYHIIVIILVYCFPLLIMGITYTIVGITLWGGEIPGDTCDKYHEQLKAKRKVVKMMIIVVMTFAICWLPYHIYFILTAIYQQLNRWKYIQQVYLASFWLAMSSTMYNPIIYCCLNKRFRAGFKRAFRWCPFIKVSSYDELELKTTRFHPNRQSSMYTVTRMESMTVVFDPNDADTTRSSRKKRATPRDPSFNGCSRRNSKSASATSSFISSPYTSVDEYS
Experimental: as §1, §2

[3] = target: T3, F2R (Homo sapiens, UniProt P25116); test: NanoBRET screen HiBiT-F2R in HEK293
T3 construct: purchased Promega (in-house HiBiT-GPCR construct library, NanoBRET)
T3 sequence (P25116 22-425): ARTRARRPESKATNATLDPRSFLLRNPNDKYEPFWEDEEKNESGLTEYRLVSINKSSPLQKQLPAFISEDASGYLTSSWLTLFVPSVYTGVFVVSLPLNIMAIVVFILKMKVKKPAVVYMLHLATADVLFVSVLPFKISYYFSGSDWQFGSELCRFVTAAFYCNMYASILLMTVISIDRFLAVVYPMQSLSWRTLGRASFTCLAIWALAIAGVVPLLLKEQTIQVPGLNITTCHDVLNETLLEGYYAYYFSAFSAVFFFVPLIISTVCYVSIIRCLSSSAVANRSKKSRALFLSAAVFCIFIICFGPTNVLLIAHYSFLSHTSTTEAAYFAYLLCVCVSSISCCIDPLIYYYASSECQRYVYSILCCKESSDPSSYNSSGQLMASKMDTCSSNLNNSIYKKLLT
Experimental: as §1, §2

[4] = target: T4, FZD2 (Homo sapiens, UniProt Q14332); test: NanoBRET screen HiBiT-FZD2 in HEK293
T4 construct: purchased Promega (in-house HiBiT-GPCR construct library, NanoBRET)
T4 sequence (Q14332 24-565): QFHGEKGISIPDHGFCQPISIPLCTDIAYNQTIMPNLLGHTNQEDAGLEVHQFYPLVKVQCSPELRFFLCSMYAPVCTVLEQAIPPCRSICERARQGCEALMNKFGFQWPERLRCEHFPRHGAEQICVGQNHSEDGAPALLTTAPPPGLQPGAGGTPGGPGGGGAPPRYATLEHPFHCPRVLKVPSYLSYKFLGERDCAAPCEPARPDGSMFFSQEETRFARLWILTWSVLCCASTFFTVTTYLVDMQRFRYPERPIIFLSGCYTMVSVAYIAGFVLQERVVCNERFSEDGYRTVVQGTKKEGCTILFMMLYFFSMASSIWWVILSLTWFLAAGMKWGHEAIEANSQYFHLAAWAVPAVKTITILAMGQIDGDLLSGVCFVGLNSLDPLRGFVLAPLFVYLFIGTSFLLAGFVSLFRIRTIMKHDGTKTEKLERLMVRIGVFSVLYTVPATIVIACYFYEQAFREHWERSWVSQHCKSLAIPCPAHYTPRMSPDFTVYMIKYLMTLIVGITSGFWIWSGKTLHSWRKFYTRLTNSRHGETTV
Experimental: as §1, §2

[5] = target: T5, P2RY2 (Homo sapiens, UniProt P41231); test: NanoBRET screen HiBiT-P2RY2 in HEK293
T5 construct: purchased Promega (in-house HiBiT-GPCR construct library, NanoBRET)
T5 sequence (P41231 whole entry): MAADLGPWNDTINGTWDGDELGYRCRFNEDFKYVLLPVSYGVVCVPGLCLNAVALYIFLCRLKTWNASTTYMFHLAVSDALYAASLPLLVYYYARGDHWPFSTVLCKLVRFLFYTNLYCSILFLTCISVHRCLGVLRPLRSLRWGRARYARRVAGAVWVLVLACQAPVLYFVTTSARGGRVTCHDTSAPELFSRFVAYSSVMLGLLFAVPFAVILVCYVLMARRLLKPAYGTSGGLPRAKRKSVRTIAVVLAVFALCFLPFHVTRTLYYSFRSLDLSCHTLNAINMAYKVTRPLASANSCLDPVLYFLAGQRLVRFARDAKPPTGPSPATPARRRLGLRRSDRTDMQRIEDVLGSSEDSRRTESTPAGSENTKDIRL
Experimental: as §1, §2

[6] = tracer at 0.1μM, listed as amitriptyline-b-2-NB590
[7] = tracer at 1μM, listed as amitriptyline-b-2-NB590

T1 sequence (P30989 whole entry): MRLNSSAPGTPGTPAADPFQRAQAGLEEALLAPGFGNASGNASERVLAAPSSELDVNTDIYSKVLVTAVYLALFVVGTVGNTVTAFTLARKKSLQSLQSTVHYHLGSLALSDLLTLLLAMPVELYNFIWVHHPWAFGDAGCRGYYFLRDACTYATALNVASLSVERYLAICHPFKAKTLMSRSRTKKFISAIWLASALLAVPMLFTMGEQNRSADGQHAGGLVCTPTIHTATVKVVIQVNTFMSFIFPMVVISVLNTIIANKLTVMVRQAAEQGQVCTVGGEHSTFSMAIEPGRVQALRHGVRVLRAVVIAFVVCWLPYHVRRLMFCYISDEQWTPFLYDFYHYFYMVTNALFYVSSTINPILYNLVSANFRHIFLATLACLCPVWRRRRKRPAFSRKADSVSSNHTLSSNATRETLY

SMILES | NanoBRET Fold Response ([1]; NTSR1, tracer 0.1μM) | NanoBRET Fold Response ([1]; NTSR1, tracer 1μM) | NanoBRET Fold Response ([2]; TACR3, tracer 0.1μM) | NanoBRET Fold Response ([2]; TACR3, tracer 1μM) | NanoBRET Fold Response ([3]; F2R, tracer 0.1μM) | NanoBRET Fold Response ([3]; F2R, tracer 1μM) | NanoBRET Fold Response ([4]; FZD2, tracer 0.1μM) | NanoBRET Fold Response ([4]; FZD2, tracer 1μM) | NanoBRET Fold Response ([5]; P2RY2, tracer 0.1μM) | NanoBRET Fold Response ([5]; P2RY2, tracer 1μM) | other results
CC(C)N(CC[C@H](c1ccccc1)c1cc(CCNC(=O)CCOCCOCCOCCOCCNC(=O)CCc2ccc3n2[B-](F)(F)[N+]2=C(c4ccc[nH]4)C=CC2=C3)ccc1O)C(C)C [Tolterodine-2-NB590] | 1.09 | 0.90 | 1.11 | 1.08 | 1.20 | 1.03 | 0.91 | 0.95 | 1.06 | 1.07 | –
Cc1nc2n(c(=O)c1CCN1CCC(c3noc4cc(F)ccc34)CC1)CCCC2OC(=O)NCCOCCOCCOCCOCCNC(=O)CCc1ccc2n1[B-](F)(F)[N+]1=C(c3ccc[nH]3)C=CC1=C2 (stereo not shown) [Risperidone-2-NB590] | 1.00 | 0.98 | 1.04 | 1.10 | 0.97 | 0.78 | 1.01 | 1.03 | 1.08 | 0.86 | –
O=C(CCOCCOCCOCCOCCNC(=O)CCc1ccc2n1[B-](F)(F)[N+]1=C(c3ccc[nH]3)C=CC1=C2)NCCCN1CCN(C2=Nc3cc(Cl)ccc3Nc3ccccc32)CC1 [Clozapine-a-2-NB590] | – | – | – | – | – | – | – | – | – | – | NanoBRET Fold Response ([1]; NTSR1, 0.1μM tracer): 0.97; NanoBRET Fold Response ([1]; NTSR1, 1μM tracer): 1.00; NanoBRET Fold Response ([2]; TACR3, 0.1μM tracer): 0.99; NanoBRET Fold Response ([2]; TACR3, 1μM tracer): 1.21; NanoBRET Fold Response ([3]; F2R, 0.1μM tracer): 1.12; NanoBRET Fold Response ([3]; F2R, 1μM tracer): 1.05; NanoBRET Fold Response ([4]; FZD2, 0.1μM tracer): 1.04; NanoBRET Fold Response ([4]; FZD2, 1μM tracer): 1.02; NanoBRET Fold Response ([5]; P2RY2, 0.1μM tracer): 1.12; NanoBRET Fold Response ([5]; P2RY2, 1μM tracer): 0.97
COc1ccc2[nH]c(-c3ccc(CNC(=O)CCOCCOCCOCCOCCNC(=O)CCc4ccc5n4[B-](F)(F)[N+]4=C(c6ccc[nH]6)C=CC4=C5)cc3)c(CCNC(C)=O)c2n1 [AzomelatoninICO9-2-NB590] | – | – | – | – | – | – | – | – | – | – | NanoBRET Fold Response ([1]; 0.1μM tracer): 0.90; NanoBRET Fold Response ([1]; 1μM tracer): 0.78; NanoBRET Fold Response ([2]; 0.1μM tracer): 1.23; NanoBRET Fold Response ([2]; 1μM tracer): 1.00; NanoBRET Fold Response ([3]; 0.1μM tracer): 1.38; NanoBRET Fold Response ([3]; 1μM tracer): 0.84; NanoBRET Fold Response ([4]; 0.1μM tracer): 0.99; NanoBRET Fold Response ([4]; 1μM tracer): 1.11; NanoBRET Fold Response ([5]; 0.1μM tracer): 1.06; NanoBRET Fold Response ([5]; 1μM tracer): 1.09
CN1CCN(C2=Nc3cc(Cl)ccc3Nc3ccc(CNC(=O)CCOCCOCCOCCOCCNC(=O)CCc4ccc5n4[B-](F)(F)[N+]4=C(c6ccc[nH]6)C=CC4=C5)cc32)CC1 [Clozapine-b-2-NB590] | – | – | – | – | – | – | – | – | – | – | NanoBRET Fold Response ([1]; NTSR1, 0.1μM tracer): 1.00; NanoBRET Fold Response ([1]; NTSR1, 1μM tracer): 1.01; NanoBRET Fold Response ([2]; TACR3, 0.1μM tracer): 1.01; NanoBRET Fold Response ([2]; TACR3, 1μM tracer): 1.05; NanoBRET Fold Response ([3]; F2R, 0.1μM tracer): 1.02; NanoBRET Fold Response ([3]; F2R, 1μM tracer): 1.01; NanoBRET Fold Response ([4]; FZD2, 0.1μM tracer): 1.01; NanoBRET Fold Response ([4]; FZD2, 1μM tracer): 1.11; NanoBRET Fold Response ([5]; P2RY2, 0.1μM tracer): 0.96; NanoBRET Fold Response ([5]; P2RY2, 1μM tracer): 1.00
COc1ccccc1N1CCN(CCCCN2C(=O)c3ccc(CNC(=O)CCOCCNC(=O)c4ccc(CNC(=O)CCc5ccc6n5[B-](F)(F)[N+]5=C(c7ccc[nH]7)C=CC5=C6)cc4)cc3C2=O)CC1 [NAN-190-3-NB590] | 0.90 | 0.99 | 0.97 | 0.96 | 0.97 | 1.11 | 0.88 | 1.44 | 1.00 | 1.01 | –
N#CN=C(NCCCOc1cccc(CN2CCCCC2)c1)NCCNC(=O)CCOCCOCCOCCOCCNC(=O)CCc1ccc2n1[B-](F)(F)[N+]1=C(c3ccc[nH]3)C=CC1=C2 [Aminopotentidine-2-NB590] | 1.02 | 1.03 | 1.06 | 1.06 | 1.06 | 1.00 | 1.08 | 1.06 | 1.01 | 1.00 | –
CN(C)CCC=C1c2ccccc2CCc2ccc(C(=O)NCCNC(=O)CCOCCOCCOCCOCCNC(=O)CCc3ccc4n3[B-](F)(F)[N+]3=C(c5ccc[nH]5)C=CC3=C4)cc21 [Amitriptyline-b-2-NB590] | – | – | – | – | – | – | – | – | – | – | NanoBRET Fold Response [1, 6]: 0.97; NanoBRET Fold Response [1, 7]: 1.02; NanoBRET Fold Response [2, 7]: 0.97; NanoBRET Fold Response [3, 6]: 0.76; NanoBRET Fold Response [3, 7]: 0.97; NanoBRET Fold Response [4, 6]: 1.03; NanoBRET Fold Response [4, 7]: 0.94; NanoBRET Fold Response [5, 6]: 1.04; NanoBRET Fold Response [5, 7]: 0.92
